Melting point and IC50 data for twelve compounds are collected here from patent US20080214529A1, “SATURATED FUSED [1,2-b]PYRIDAZINONE COMPOUNDS” (priority 2006, published 2008).

Structures can show the parent of a compound that is named as a salt.

One series concerns the target NS5B polymerase (Hepatitis C virus genotype 1b, UniProt P26663). The series can be described thus: biochemical. Conditions: NS5B polymerase inhibition; 20 nM enzyme, 75 min at 28° C. As to the method:
Compounds were tested for HCV polymerase inhibition. Assays were performed in a 96-well streptavidin-coated FlashPlate using 20 nM enzyme, 0.5 μCi of [α-^33P]GTP, 0.6 μM GTP, and 250 nM 5′biotinylated oligo (rG13)/poly rC in 20 mM Tris-HCl, pH 7.5, 5 mM MgCl2, 5 mM dithiothreitol, 0.1 g/L bovine serum albumin, and 100 U/mL RNAse inhibitor. The reaction was stopped by aspiration after 75 min at 28° C. and the plate was washed several times. After washing and drying the plate, incorporated radioactivity was counted using a Microbeta scintillation counter. IC50 values were calculated relative to the uninhibited control and inhibition data were fitted to a 4-parameter IC50 equation.

Sequence of NS5B polymerase (P26663 2420-3010): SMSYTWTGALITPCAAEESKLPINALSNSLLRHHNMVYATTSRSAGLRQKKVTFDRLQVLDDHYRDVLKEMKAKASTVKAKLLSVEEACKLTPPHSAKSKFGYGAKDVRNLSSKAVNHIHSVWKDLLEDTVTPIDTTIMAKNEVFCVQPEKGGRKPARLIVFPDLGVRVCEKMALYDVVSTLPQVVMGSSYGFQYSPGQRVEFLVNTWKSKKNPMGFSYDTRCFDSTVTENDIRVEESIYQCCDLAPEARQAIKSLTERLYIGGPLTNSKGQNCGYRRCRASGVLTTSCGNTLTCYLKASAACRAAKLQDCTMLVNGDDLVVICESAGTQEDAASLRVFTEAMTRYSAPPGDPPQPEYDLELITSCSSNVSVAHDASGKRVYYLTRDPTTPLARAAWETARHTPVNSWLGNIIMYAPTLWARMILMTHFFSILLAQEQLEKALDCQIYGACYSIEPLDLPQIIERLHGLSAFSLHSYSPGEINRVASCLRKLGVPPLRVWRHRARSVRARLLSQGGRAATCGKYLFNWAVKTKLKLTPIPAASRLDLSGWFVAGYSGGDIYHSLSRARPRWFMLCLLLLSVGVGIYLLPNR

The melting point is the temperature of the solid-liquid transition. The compound `CN1N(CCC(C)(C)C)C(=O)C(C2=NS(=O)(=O)c3cc(NS(C)(=O)=O)ccc3N2)=C(O)C12CCCC2` (as salt: trifluoroacetic acid salt) [Example 5, N-{3-[7-(3,3-Dimethyl-butyl)-10-hydroxy-6-methyl-8-oxo-6,7-diaza-spiro[4.5]dec-9-en-9-yl]-1,1-dioxo-1,4-dihydro-1λ^6-benzo[1,2,4]thiadiazin-7-yl}-methanesulfonamide] returned a melting point of 203.8 to 205.7 °C.
One may read the IC50 as the midpoint of a concentration-inhibition curve. High values mean lower potency, low ones higher potency. `CS(=O)(=O)Nc1ccc2c(c1)S(=O)(=O)N=C(C1=C(O)C3CC4CCCC4N3N(C3CCCCC3)C1=O)N2` (single isomer, unassigned) [10 Isomer 1]: the IC50 against NS5B polymerase was in the range of 200 to 3000 nM.
For `CS(=O)(=O)Nc1ccc2c(c1)S(=O)(=O)N=C(C1=C(O)C3CCCCN3N(Cc3ccc(F)cc3)C1=O)N2` (stereo not drawn) [Example 1, N-{3-[1-(4-Fluoro-benzyl)-4-hydroxy-2-oxo-2,4a,5,6,7,8-hexahydro-1H-pyrido[1,2-b]pyridazin-3-yl]-1,1-dioxo-1,4-dihydro-1λ^6-benzo[1,2,4]thiadiazin-7-yl}-methanesulfonamide], the IC50 on NS5B polymerase is less than 20 nM.
In the case of `CC(C)(C)CCN1C(=O)C(C2=NS(=O)(=O)c3cc(NS(C)(=O)=O)ccc3N2)=C(O)C2CCCCN21` (stereo not drawn) [Example 2, N-{3-[1-(3,3-Dimethyl-butyl)-4-hydroxy-2-oxo-2,4a,5,6,7,8-hexahydro-1H-pyrido[1,2-b]pyridazin-3-yl]-1,1-dioxo-1,4-dihydro-1λ^6-benzo[1,2,4]thiadiazin-7-yl}-methanesulfonamide], the IC50 at NS5B polymerase lay in the range of 20 to 200 nM.
Take `CC(C)(C)CCN1C(=O)C(C2=NS(=O)(=O)c3cc(NS(C)(=O)=O)ccc3N2)=C(O)C2CCCN21` (stereo not drawn) [Example 3, N-{3-[1-(3,3-Dimethyl-butyl)-4-hydroxy-2-oxo-1,2,4a,5,6,7-hexahydro-pyrrolo[1,2-b]pyridazin-3-yl]-1,1-dioxo-1,4-dihydro-1λ^6-benzo[1,2,4]thiadiazin-7-yl}-methanesulfonamide]: the IC50 at NS5B polymerase is less than 20 nM.
As for `CC(C)(C)CCN1C(=O)C(C2=NS(=O)(=O)c3cc(NS(C)(=O)=O)ccc3N2)=C(O)C2(C)CCCN12` (stereo not drawn) [Example 4, N-{3-[1-(3,3-Dimethyl-butyl)-4-hydroxy-4a-methyl-2-oxo-1,2,4a,5,6,7-hexahydro-pyrrolo[1,2-b]pyridazin-3-yl]-1,1-dioxo-1,4-dihydro-1λ^6-benzo[1,2,4]thiadiazin-7-yl}-methanesulfonamide], the IC50 against NS5B polymerase lay in the range of 20 to 200 nM.
Turning to `CN1N(CCC(C)(C)C)C(=O)C(C2=NS(=O)(=O)c3cc(NS(C)(=O)=O)ccc3N2)=C(O)C12CCCC2` [Example 5, N-{3-[7-(3,3-Dimethyl-butyl)-10-hydroxy-6-methyl-8-oxo-6,7-diaza-spiro[4.5]dec-9-en-9-yl]-1,1-dioxo-1,4-dihydro-1λ^6-benzo[1,2,4]thiadiazin-7-yl}-methanesulfonamide], on NS5B polymerase, the IC50 was in the range of 200 to 3000 nM.
`CC(C)CCN1C(=O)C(C2=NS(=O)(=O)c3cc(NS(C)(=O)=O)ccc3N2)=C(O)C2CCCN21` (stereo not drawn) [Example 6, N-{3-[4-Hydroxy-1-(3-methyl-butyl)-2-oxo-1,2,4a,5,6,7-hexahydro-pyrrolo[1,2-b]pyridazin-3-yl]-1,1-dioxo-1,4-dihydro-1λ^6-benzo[1,2,4]thiadiazin-7-yl}-methanesulfonamide] came in with an IC50 at NS5B polymerase of less than 20 nM.
At NS5B polymerase, `CS(=O)(=O)Nc1ccc2c(c1)S(=O)(=O)N=C(C1=C(O)C3CCCN3N(Cc3ccc(F)cc3)C1=O)N2` (stereo not drawn) [Example 7, N-{3-[1-(4-Fluoro-benzyl)-4-hydroxy-2-oxo-1,2,4a,5,6,7-hexahydro-pyrrolo[1,2-b]pyridazin-3-yl]-1,1-dioxo-1,4-dihydro-1λ^6-benzo[1,2,4]thiadiazin-7-yl}-methanesulfonamide] came in with an IC50 of less than 20 nM.
On the same count and under the same terms, then `CS(=O)(=O)Nc1ccc2c(c1)S(=O)(=O)N=C(C1=C(O)C3C4CCC(C4)N3N(Cc3ccc(F)cc3)C1=O)N2` (stereo not drawn) [Example 9, N-{3-[3-(4-Fluoro-benzyl)-6-hydroxy-4-oxo-2,3-diaza-tricyclo[6.2.1.0^2,7]undec-5-en-5-yl]-1,1-dioxo-1,4-dihydro-1λ^6-benzo[1,2,4]thiadiazin-7-yl}-methanesulfonamide], with less than 20 nM; and `CS(=O)(=O)Nc1ccc2c(c1)S(=O)(=O)N=C(C1=C(O)[C@@H]3C4CCC(CC4)N3N(Cc3ccc(F)cc3)C1=O)N2` [Example 11, (7S)-N-{3-[3-(4-Fluoro-benzyl)-6-hydroxy-4-oxo-2,3-diaza-tricyclo[6.2.2.0^2,7]dodec-5-en-5-yl]-1,1-dioxo-1,4-dihydro-1λ^6-benzo[1,2,4]thiadiazin-7-yl}-methanesulfonamide], with 20 to 200 nM.
Still for that read-out and setting: the same measure for `CS(=O)(=O)Nc1ccc2c(c1)S(=O)(=O)N=C(C1=C(O)[C@]34C[C@H]3CCN4N(Cc3ccc(F)cc3)C1=O)N2` [Example 12, (1aR,7aS)-N-{3-[4-(4-Fluoro-benzyl)-7-hydroxy-5-oxo-1,1a,2,3,4,5-hexahydro-3a,4-diaza-cyclopropa[c]inden-6-yl]-1,1-dioxo-1,4-dihydro-1λ^6-benzo[1,2,4]thiadiazin-7-yl}-methanesulfonamide]: 20 to 200 nM.
